Article PMC9241669, “Allantodapsone is a Pan-Inhibitor of Staphylococcus aureus Adhesion to Fibrinogen, Loricrin, and Cytokeratin 10” (Microbiology Spectrum, 2022)
pIC50: −log10 of the molar value. Where two headings read alike, the source gives them in different places.

Key:
S. aureus SH1000 = assay: Adhesion of S. aureus SH1000 to immobilized fibrinogen (crystal violet); format: cell-based, Staphylococcus aureus; conditions: for pIC50: Staphylococcus aureus
Procedure: FIG 2 Allantodapsone inhibits S. aureus adhesion to fibrinogen. (A) S. aureus Newman stationary phase and (B) exponential phase. (C) S. aureus SH1000 stationary phase and (D) exponential phase bacteria. Fibrinogen was used to coat plates at 4°C overnight at 10 μg/mL. Wells were washed with PBS and blocked with 1% BSA. Washed bacteria (OD600 of 1) were mixed with the relevant concentration of allantodapsone or vehicle control for 5 min, and added to the wells, incubating for 2 h at 37°C. Adherent cells were washed, fixed, and stained with crystal violet, and wells further washed. The dye was dissolved in acetic acid and the absorbance measured at 570 nm. Compounds were screened at a concentration of 70 μM and compared to their vehicle control. Statistical analysis was carried out using repeated measures ANOVA followed by multiple comparisons Dunnett’s tests using GraphPad PRISM. **, P ≤ 0.01; ***, P ≤ 0.001; ****, P ≤ 0.0001 (n = 3).
Adhesion assays were carried out according to Hartford et al. ([37]). Briefly, plates were coated with 10 μg/mL fibrinogen (Calbiochem, Darmstadt, Germany) or 20 μg/mL fibronectin (Sigma-Aldrich, Ireland) for 2 h at 37°C or for 16 h at 4°C. Plates were blocked with 1% BSA at 37°C for 1 h and washed 3 times in PBS. Washed bacteria were incubated at 37°C for 2 h. Adherent bacteria were washed three times in PBS and fixed in 5–9% formaldehyde at room temperature for 30 min. Wells were washed three times in PBS and stained using 5% crystal violet for 20 min. Wells were washed three times in PBS, and the crystal violet solubilized using 5% acetic acid. Plates were read at 570 nm on a Wallac Victor2, (Shelton, CT, USA). The minimum adhesion inhibitory concentration (MAIC) was determined as the concentration inhibiting greater than 90% bacterial adhesion.
Compounds were added to the bacterial suspension prior to addition to the wells. In each experiment, vehicle controls were prepared using the same volume of vehicle for the matching test compound.

S. aureus Newman = assay: Antimicrobial assay (bacterial growth in BHI broth); format: cell-based, Staphylococcus aureus; conditions: overnight in BHI broth, allantodapsone up to 100 μM, versus vehicle control
Procedure: S. aureus was grown in BHI broth shaking overnight at 37°C in the presence of a range of concentrations of allantodapsone, dapsone, or ampicillin as control. Absorbance was measured the following day at 570 nm. Data have been normalized to the relevant vehicle control (1% DMSO for allantodapsone and dapsone and water for ampicillin). […] Error bars represent SEM.
S. aureus was grown overnight in BHI broth at 37°C in shaking incubator. Wells were inoculated with 10 μL of overnight culture into 90 μL of broth containing the test compounds or controls. A growth control containing no agents was used (positive control), a sterility control of broth alone was included, and vehicle controls were included for each test compound. Plates were incubated overnight at 37°C and absorbance measured at 570 nm the following day using a Wallac Victor2, (Shelton, CT, USA).

[1] = test system: platelet aggregation induced by S. aureus Newman; assay: Platelet aggregation induced by S. aureus Newman in platelet rich plasma; format: cell-based, human; conditions: 100 μM allantodapsone, 5 minutes prior to aggregation
Procedure: V. Microbiology: Materials and Methods
The MTT toxicity assay (1) (Vybrant MTT Cell Proliferation Assay, Molecular Probes, Or, USA) was used to measure cytotoxicity. Myeloid lineage, U-937 cells (2) were grown in RPMI-1640 (Gibco) culture medium supplemented with 10% foetal calf serum, 1% L-glutamine and 1% Penicillin/Streptomycin (Gibco). U-937 cells were centrifuged and cells diluted with fresh medium containing 1.2 mM MTT solution to a concentration of (5-6 x 10^6 per mL) and incubated at 37 °C for 2 h. Cells were centrifuged and the pellet dissolved in DMSO. The absorbance was read at 490 nm using the Wallac Victor2, (Shelton, Connecticut, USA).
Platelet aggregation was performed in platelet rich plasma according to O’Brien et al.
S. aureus Newman (stationary phase) was washed and diluted to an OD600 of 2.5.
This was mixed with 10 mg/mL of fibrinogen in 1:1 ratio resulting in a final concentration 5 mg/mL fibrinogen. Fibrinogen -bacteria aggregates clump and settle at the bottom of the tube resulting in a clear solution. These were compared to the turbid bacterial suspension in buffer by visual inspection. […]
of S. aureus Newman was used as an agonist to stimulate platelet aggregation. […] Data was analysed by repeated measures ANOVA followed by a multiple comparison Dunnett’s test. […]

## Nc1ccc(S(=O)(=O)c2ccc(NCN3C(=O)NC(=O)C(=O)C3=O)cc2)cc1 [Allantodapsone]
S. aureus SH1000; S. aureus SH1000, stationary and exponential phase, compounds screened at 70 μM (Fig. 2)
  inhibition of adhesion to fibrinogen: inhibited
S. aureus SH1000; SH1000, read-out: IC50, inhibition of adhesion to fibrinogen, S. aureus SH1000 exponential phase
  pIC50: 4.81
S. aureus SH1000; SH1000, read-out: IC50, inhibition of adhesion to fibrinogen, S. aureus SH1000 stationary phase
  pIC50: 5.12
S. aureus Newman
  inhibition of bacterial growth (words): does not inhibit bacterial growth
S. aureus Newman; listed as allantodapsone
  inhibition of bacterial growth (words): no inhibition of bacterial growth
[1]
  inhibition of S. aureus Newman induced platelet aggregation: did not inhibit
